One experiment has as its target T1, CYP4A (CYP4A11) (Homo sapiens, UniProt Q02928).
T1 construct: expressed in transfected cells; host or cells: HepG2 (human liver cell line), RIPA lysate
T1 sequence (Q02928 5-519): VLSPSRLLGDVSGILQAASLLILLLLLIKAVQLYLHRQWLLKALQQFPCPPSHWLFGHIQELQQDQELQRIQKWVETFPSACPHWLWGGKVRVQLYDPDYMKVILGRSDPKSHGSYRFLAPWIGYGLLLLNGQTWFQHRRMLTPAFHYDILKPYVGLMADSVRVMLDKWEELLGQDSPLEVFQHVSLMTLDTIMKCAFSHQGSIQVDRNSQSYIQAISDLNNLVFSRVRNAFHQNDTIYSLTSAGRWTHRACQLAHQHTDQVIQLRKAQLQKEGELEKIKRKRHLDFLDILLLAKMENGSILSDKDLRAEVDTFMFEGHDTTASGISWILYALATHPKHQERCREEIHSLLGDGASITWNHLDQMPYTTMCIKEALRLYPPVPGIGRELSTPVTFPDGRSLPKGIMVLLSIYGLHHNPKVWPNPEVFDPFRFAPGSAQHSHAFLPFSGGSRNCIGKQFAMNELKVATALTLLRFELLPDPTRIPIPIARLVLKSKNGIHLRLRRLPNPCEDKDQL
Nature of the experiment: CYP4A activity inhibition, Luciferin-4A luminescence with CYP4A expressing HepG2 cell lysate. The class given is biochemical. The settings on record: FIG. 1: all compounds at 5 μM; FIG. 2: by concentration; compared with HET0016. As to the method:
CYP4A11 DNA (GenBank: S67580.1) was transfected into HepG2 cells, a human liver cell line, and cultured in an incubator for 24 hours so that the protein was expressed. After that, cells were pulverized by adding RIPA buffer (20 mM Tris-HCl (pH 7.5), 150 mM NaCl, 1 mM Na2EDTA, 1 mM EGTA, 1% NP-40, 1% sodium deoxycholate, 2.5 mM sodium pyrophosphate, 1 mM b-glycerophosphate, 1 mM Na3VO4, 1 μg/ml leupeptin) to extract proteins, and then CYP4A activity experiment and compound screening were performed as follows. […]
After putting it in the NADPH Regeneration system (20× sol.A, 100× sol.B in water, Cal. Number: D399, Thermo Fisher SCIENTIFIC), leave it at room temperature for 1 hour to allow the CYP4A reaction to occur sufficiently, and CYP4A reaction is finished by adding Luciferin Detection reagent, and induce a luminescence reaction to occur, and the reaction was carried out at room temperature for 20 minutes. The degree of inhibition of CYP4A activity was measured by comparing the luminescence values from each well with a microplate reader.

In experiment [1] the test system is HepG2 cells. Nature of the experiment: Glucose absorption promoting effect (2-NBDG uptake) under ER stress. In kind it is cell-based, human. The following applies: 5 μM compound. The method, then:
HepG2 cells, a human liver cell line, were cultured in a high-glucose DMEM (Dulbecco's modified Eagle's medium, glucose 25 mM) medium in the presence of 10% fetal bovine serum (FBS), and then glucose uptake experiments were performed as follows.
First, HepG2 cells were grown to 1×10^4 cells/well in a 96-well plate (black, clear bottom culture plate) by the above method, and then 5 μM of each compound screened in Example 1 was added and incubated for 6 hours. Here, thapsigargin or tunicamycin, which induces endoplasmic reticulum stress, was added to hepatocytes, and then placed in an incubator at 37° C. for 24 hours to react. After that, insulin and 2-NBDG (2-(N-(7-Nitrobenz-2-oxa-1,3-diazol-4-yl)Amino)-2-Deoxyglucose) were added and reacted in an incubator at 37° C. for 3 hours, and after washing with PBS (phosphate buffered saline), fluorescence was measured with a microplate reader (Excitation: 488 nm, Emission: 508 nm).

Experiment [2] deals with HepG2 cells. Nature of the experiment: Fat accumulation inhibitory activity in hepatocytes (palmitate, Nile-Red). The class given is cell-based, human. The following applies: 5 μM compound; palmitate 72 hours; compared with positive control HET0016. As to the method:
After culturing HepG2 cells, a human liver cell line, in a high-concentration DMEM medium (Dulbecco's modified Eagle's medium, glucose 25 mM) containing 10% fetal bovine serum (FBS), an experiment was performed to measure fat accumulation by the following method.
First, HepG2 cells were grown to 5×10^3 cells/well in a 96-well plate (black, clear bottom culture plate) by the above method, and 5 μM of each compound screened in Example 1 was added thereto, followed by incubation for 6 hours. Here, palmitate, a fatty acid that induces fat accumulation in hepatocytes, is added, and then placed in an incubator at 37° C. for 72 hours to react. Thereafter, 4% paraformaldehyde was added and reacted at room temperature for 15 minutes to fix, and then Nile-Red solution was added, light was blocked, and reaction was performed at 37° C. for 10 minutes. After the reaction time, fluorescence was measured with a microplate reader (Excitation: 530 nm, Emission: 635 nm).

In experiment [3] the test system is HepG2 cells. Nature of the experiment: Active oxygen (ROS) scavenging ability under ER stress (H2DCFDA). In kind it is cell-based, human. The following applies: 5 μM compound; for amount of ROS: Thapsigargin or Tunicamycin; for inhibition of ROS production and removal of ROS: Thapsigargin-treated group, compared with HET0016. As to the method: After culturing HepG2 cells, a human liver cell line, in high-glucose DMEM medium (Dulbecco's modified Eagle's medium, glucose 25 mM) in the presence of 10% fetal bovine serum (FBS), an experiment was performed to measure the ability to remove reactive oxygen species by the following method.
First, HepG2 cells were grown to 1×10^4 cells/well in a 96-well plate (black, clear bottom culture plate) by the above method, and then 5 μM of each compound screened in Example 1 was added and incubated for 6 hours. After adding thapsigargin or tunicamycin to induce endoplasmic reticulum stress, the reaction was put in an incubator for 24 hours. After that, 5 μM H2DCFDA (cell-permeant 2′,7′-dichlorodihydrofluorescein diacetate) was added and reacted for 30 minutes in an incubator at 37° C. Thereafter, after washing with PBS, it was placed in an incubator at 37° C. for 30 minutes and waited for luminescence to occur. Thereafter, fluorescence was measured with a microplate reader (Excitation: 488 nm, Emission: 508 nm).

Setting [4] is: Thapsigargin or Tunicamycin, compared with positive control HET0016.
[5] abbreviates: Tunicamycin-treated group, compared with HET0016.

Experimental findings from US12274705B2, “Composition comprising CYP4A-inhibiting compound as active ingredient for preventing or treating metabolic diseases” (Korea Basic Science Institute, priority 2018, dated 2025) are described below.

Structures are written as SMILES.

For `CC(=O)Nc1ccc(S(=O)(=O)N2CCN(c3ccnc4cc(Cl)ccc34)CC2)cc1` [#18-1, N-(4-((4-(7-chloroquinolin-4-yl)piperazin-1-yl)sulfonyl)phenyl)acetamide], the “CYP4A inhibitory ability (luminescence)” value on CYP4A (CYP4A11) is recorded as “particularly excellent among the selected compounds”. Also, the “glucose absorption promoting effect (2-NBDG fluorescence)” value (“glucose absorption promoting effect” for short) in the experiment on HepG2 cells [1] (setting [4]) is listed as “significant to the same or higher degree than that of the positive control group (HET0016)”. Also, in the experiment with HepG2 cells [1] (setting [5]), the “glucose absorption promoting effect” value is reported as “more effective in promoting glucose absorption than the known HET0016 compound”. In addition, the “fat accumulation in liver cells (Nile-Red fluorescence)” value with HepG2 cells [2] is recorded as “suppressed to a degree similar to that of the positive control group (HET0016)”. In the experiment on HepG2 cells [3], the “amount of ROS” value is listed as “significantly decreased”; the “inhibition of ROS production and removal of ROS” value was “better inhibition of ROS production and removal of ROS than HET0016”.

For `CC(=O)Nc1ccc(S(=O)(=O)N2CCN(c3cc(C)nc4ccccc34)CC2)cc1` [#18-2, N-(4-((4-(2-methylquinolin-4-yl)piperazin-1-yl)sulfonyl)phenyl)acetamide], the “CYP4A inhibitory ability (luminescence)” value on CYP4A (CYP4A11) is recorded as “particularly excellent among the selected compounds”. Further, the “glucose absorption promoting effect” value with HepG2 cells [1] (setting [4]) is reported as “significant to the same or higher degree than that of the positive control group (HET0016)”; in the experiment with HepG2 cells [1] (setting [5]) it was “more effective in promoting glucose absorption than the known HET0016 compound”. Further, the “fat accumulation in liver cells (Nile-Red fluorescence)” value in the experiment with HepG2 cells [2] is “suppressed to a degree similar to that of the positive control group (HET0016)”. Also, the “amount of ROS” value in the experiment with HepG2 cells [3] is on record as “significantly decreased”. In addition, the “inhibition of ROS production and removal of ROS” value in the experiment with HepG2 cells [3] was “better inhibition of ROS production and removal of ROS than HET0016”.
